Results reported in patent publication US12606517B2, “Ibuprofen ester derivative and emulsion preparation thereof” (NANJING HERON PHARMACEUTICAL SCIENCE AND TECHNOLOGY CO., …, priority 2021, dated 2026).
“Also recorded” adds a separate entry of the source.

Key:
[1] = Pharmacokinetics of PEG400 solution versus emulsion injection in rats (Test Example 5); type: in vivo; details: tail vein, equimolar dose
Experimental: The PEG solution (3250 μL) of the test compound was pipetted into a 10 mL EP tube, 1750 μL of normal saline was added into the tube with the dispensing gun, and the mixture was vortexed to be uniformly mixed to obtain a dosing solution with a concentration of 1.3 mg/mL and a volume of 5 mL.
Method for preparing the test solution of N9(S) (emulsion injection): an emulsion injection (215 μL) containing N9(S) compound (the content of which was 60 mg/mL) was added into a 15 mL EP tube and 10 mL of normal saline was added into the tube with a dispensing gun to obtain a dosing solution with a concentration of 1.3 mg/mL and […].

[2] = Metabolism of the compound in human plasma in vitro; type: in vitro ADME
Experimental: In the present application, the conversion characteristics of Compound N9 and its isomers were evaluated by establishing an in vitro human plasma metabolism model. The test scheme was as follows: • (1) stock solutions (40 mM) of Compounds N9, N9(S) and N9(R) in pure acetonitrile were formulated respectively, and a stock solution (40 mM) of ibuprofen in pure acetonitrile was formulated; • (2) 25 μL stock solution of ibuprofen was mixed with 1 mL of human plasma and vortexed for 30 s. […]

Remaining amount of a prodrug compound (%) ([2]; 37° C., 120 min): 45.0 ± 2.1%
Compound: CCOC(=O)OC(CC)OC(=O)[C@@H](C)c1ccc(CC(C)C)cc1 (stereo partly drawn) [N9(S)]
drug-time curve of dexibuprofen in vivo versus arginine solution of dexibuprofen (in words) ([1]; PEG400 solubilized solution): basically coincide | drug-time curve of dexibuprofen in vivo versus arginine solution of dexibuprofen (in words) ([1]; emulsion injection): basically coincide | hydrolysis / metabolic rate in plasma (in words) ([2]; comparison between isomers): faster hydrolysis rate in plasma than N9(R); also recorded: faster metabolic rate than the racemate N9
